Measurements: ChEMBL document CHEMBL2203118, “Ethyl 2,4,6-trihydroxybenzoate is an agonistic ligand for liver X receptor that induces cholesterol efflux from macrophages without affecting lipid accumulation in HepG2 cells” (Bioorg Med Chem Lett, 2012)
Active and inactive are the calls of the source. The calls are words filed in the database; no cut-off is given here.

Legend:
[1] = target: T1, Liver X receptor (Homo sapiens) (UniProt Q13133+P55055); test: Agonist activity at LXR in human THP1 cells assessed as induction of ABCG1 gene expression after 48 hrs by qPCR analysis; format: functional, cell-based; details: THP-1
HepG2 [2] = test: Induction of lipid accumulation in human HepG2 cells assessed as increase in cellular triglyceride level by Dil staining relative to control; format: cell-based
HepG2 [3] = test: Reduction in SCD-1 gene expression in human HepG2 cells at 50 uM by qPCR analysis relative to control; format: functional; parameters: scale not given: the % may be the effect or the level left
[4] = target: T1, Liver X receptor (Homo sapiens); test: Agonist activity at LXR in human Caco2 cells assessed as increase in ABCA1 mRNA level at 100 uM after 48 hrs by qPCR analysis relative to control; format: functional, cell-based; details: Caco-2
[5] = target: T1, Liver X receptor (Homo sapiens); test: Agonist activity at LXR in human Caco2 cells assessed as increase in ABCG8 mRNA level at 100 uM after 48 hrs by qPCR analysis relative to control; format: functional, cell-based; details: Caco-2
HepG2 [6] = test: Induction of lipid accumulation in human HepG2 cells assessed as cellular triglyceride concentration at 50 to 100 uM; format: cell-based; details: hepg2, 100 µM
[7] = target: T1, Liver X receptor (Homo sapiens); test: Agonist activity at LXR in human THP1 cells assessed as induction of ABCG1 gene expression at 100 uM after 48 hrs by immunoblot analysis relative to control; format: functional, cell-based; details: THP-1
[8] = target: T1, Liver X receptor (Homo sapiens); test: Agonist activity at LXR in human THP1 cells assessed as increase in ApoE mRNA level at 100 uM after 48 hrs by qPCR analysis relative to control; format: functional, cell-based; details: THP-1
[9] = target: T2, Oxysterols receptor LXR-alpha (Mus musculus) (UniProt Q9Z0Y9); test: Agonist activity at LXR-alpha in mouse RAW264.7 cells assessed as reduction in cellular cholesterol level; format: functional, cell-based
T2 sequence (whole entry): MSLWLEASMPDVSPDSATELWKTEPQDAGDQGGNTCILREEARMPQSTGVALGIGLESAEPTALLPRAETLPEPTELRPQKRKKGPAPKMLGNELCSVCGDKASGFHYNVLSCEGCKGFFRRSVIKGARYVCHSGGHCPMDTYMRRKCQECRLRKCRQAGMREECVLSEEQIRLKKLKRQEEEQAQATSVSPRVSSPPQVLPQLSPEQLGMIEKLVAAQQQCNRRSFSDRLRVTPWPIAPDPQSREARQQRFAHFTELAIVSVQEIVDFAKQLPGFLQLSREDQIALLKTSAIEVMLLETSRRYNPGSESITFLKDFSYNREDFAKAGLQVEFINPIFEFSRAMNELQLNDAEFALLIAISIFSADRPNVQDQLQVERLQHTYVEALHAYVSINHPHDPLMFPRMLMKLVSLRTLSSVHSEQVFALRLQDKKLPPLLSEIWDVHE

[10] = target: T3, Peroxisome proliferator-activated receptor gamma (Homo sapiens) (UniProt P37231); test: Transactivation of PPAR-gamma transfected in HEK293 cells at 50 to 100 uM after 24 hrs by luciferase reporter gene assay; format: cell-based
T3 sequence (whole entry): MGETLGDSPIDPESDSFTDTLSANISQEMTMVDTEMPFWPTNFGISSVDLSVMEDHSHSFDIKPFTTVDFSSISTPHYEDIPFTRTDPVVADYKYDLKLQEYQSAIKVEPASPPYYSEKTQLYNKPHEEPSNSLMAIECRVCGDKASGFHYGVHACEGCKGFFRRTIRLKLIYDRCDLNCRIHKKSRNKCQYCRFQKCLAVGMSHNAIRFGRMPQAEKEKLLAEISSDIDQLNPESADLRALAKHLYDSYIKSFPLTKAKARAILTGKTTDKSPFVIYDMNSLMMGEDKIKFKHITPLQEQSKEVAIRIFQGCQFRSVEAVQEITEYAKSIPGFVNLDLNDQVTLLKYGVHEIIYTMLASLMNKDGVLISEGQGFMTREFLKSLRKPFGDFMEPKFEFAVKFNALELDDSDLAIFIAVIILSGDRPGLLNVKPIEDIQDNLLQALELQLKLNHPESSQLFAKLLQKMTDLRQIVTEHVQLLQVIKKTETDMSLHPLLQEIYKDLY

[11] = target: T4, Oxysterols receptor LXR-beta (Homo sapiens) (UniProt P55055); test: (§1) Agonist activity at human LXR-beta assessed as increase in recruitment of Trap 220/D22 coactivator peptide by TR-FRET assay; format: functional
T4 sequence (whole entry): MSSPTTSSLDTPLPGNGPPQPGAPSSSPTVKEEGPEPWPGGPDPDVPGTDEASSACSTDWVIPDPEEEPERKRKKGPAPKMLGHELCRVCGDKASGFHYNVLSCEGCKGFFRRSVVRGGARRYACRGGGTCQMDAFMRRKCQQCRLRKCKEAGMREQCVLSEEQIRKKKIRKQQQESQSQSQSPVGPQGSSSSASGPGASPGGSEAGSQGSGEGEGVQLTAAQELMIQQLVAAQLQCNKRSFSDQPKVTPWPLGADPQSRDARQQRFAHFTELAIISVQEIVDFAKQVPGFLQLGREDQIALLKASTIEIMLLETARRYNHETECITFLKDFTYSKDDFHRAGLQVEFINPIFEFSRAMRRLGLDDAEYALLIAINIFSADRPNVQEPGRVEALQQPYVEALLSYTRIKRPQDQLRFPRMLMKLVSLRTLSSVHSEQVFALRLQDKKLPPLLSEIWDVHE

[12] = target: T5, Oxysterols receptor LXR-beta (Homo sapiens, UniProt P55055); test: as §1; format: functional
T5 sequence (P55055 whole entry): T4 sequence (whole entry)

[13] = target: T6, Oxysterols receptor LXR-alpha (Homo sapiens, UniProt Q13133); test: Transactivation of human LXR-alpha transfected in HEK293 cells after 24 hrs by luciferase reporter gene assay; format: cell-based
T6 sequence (Q13133 whole entry): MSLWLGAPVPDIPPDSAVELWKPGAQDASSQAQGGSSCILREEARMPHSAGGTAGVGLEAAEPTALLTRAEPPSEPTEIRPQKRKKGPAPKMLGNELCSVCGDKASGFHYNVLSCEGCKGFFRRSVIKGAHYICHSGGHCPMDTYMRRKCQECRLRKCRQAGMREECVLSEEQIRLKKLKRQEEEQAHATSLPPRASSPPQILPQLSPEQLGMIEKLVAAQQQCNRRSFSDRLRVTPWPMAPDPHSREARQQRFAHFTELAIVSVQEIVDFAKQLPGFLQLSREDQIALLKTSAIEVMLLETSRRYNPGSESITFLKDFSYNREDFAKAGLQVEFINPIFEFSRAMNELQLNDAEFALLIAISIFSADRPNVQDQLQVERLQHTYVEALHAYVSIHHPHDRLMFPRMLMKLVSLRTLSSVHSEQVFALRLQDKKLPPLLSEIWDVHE

[14] = target: T7, Oxysterols receptor LXR-alpha (Homo sapiens) (UniProt Q13133); test: Binding affinity to human LXR-alpha LBD by SPR-Biacore assay
T7 sequence (whole entry): T6 sequence (Q13133 whole entry)

HepG2 [15] = test: Upregulation of CPT-1 gene expression in human HepG2 at 100 uM by qPCR analysis relative to control; format: functional, cell-based
[16] = target: T1, Liver X receptor (Homo sapiens); test: Agonist activity at LXR in human THP1 cells assessed as induction of ABCA1 gene expression at 100 uM after 48 hrs by immunoblot analysis relative to control; format: functional, cell-based; details: THP-1
[17] = target: T7, Oxysterols receptor LXR-alpha (Homo sapiens); test: Agonist activity at LXR-alpha in human THP1 cells assessed as reduced cellular cholesterol concentration; format: functional, cell-based; details: THP-1
HepG2 [18] = test: Upregulation of ACOX gene expression in human HepG2 at 100 uM by qPCR analysis relative to control; format: functional, cell-based
[19] = target: T7, Oxysterols receptor LXR-alpha (Homo sapiens); test: Agonist activity at LXR-alpha in human HepG2 cells assessed as reduction in cellular cholesterol level; format: functional, cell-based
[20] = target: T1, Liver X receptor (Homo sapiens); test: Agonist activity at LXR in human THP1 cells assessed as induction of ABCA1 gene expression after 48 hrs by qPCR analysis; format: functional, cell-based; details: THP-1
[21] = target: T8, Peroxisome proliferator-activated receptor alpha (Homo sapiens) (UniProt Q07869); test: Transactivation of PPAR-alpha transfected in HEK293 cells at 50 to 100 uM after 24 hrs by luciferase reporter gene assay; format: cell-based
T8 sequence (whole entry): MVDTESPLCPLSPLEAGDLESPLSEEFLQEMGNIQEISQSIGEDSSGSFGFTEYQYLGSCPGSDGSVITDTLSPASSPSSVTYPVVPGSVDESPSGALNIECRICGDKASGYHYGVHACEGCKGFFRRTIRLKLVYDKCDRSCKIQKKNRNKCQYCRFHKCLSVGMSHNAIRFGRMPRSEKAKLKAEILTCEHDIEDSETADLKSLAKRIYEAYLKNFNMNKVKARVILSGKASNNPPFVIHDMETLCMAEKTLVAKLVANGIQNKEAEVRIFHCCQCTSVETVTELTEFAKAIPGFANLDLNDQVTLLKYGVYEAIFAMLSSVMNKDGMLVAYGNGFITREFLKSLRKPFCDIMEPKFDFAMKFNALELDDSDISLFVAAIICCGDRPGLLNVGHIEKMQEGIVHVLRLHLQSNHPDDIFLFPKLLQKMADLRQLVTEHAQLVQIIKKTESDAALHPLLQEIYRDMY

[22] = Agonist activity at LXR in mouse RAW 264.7 assessed as increase in ABCG1mRNA level at 100 uM after 48 hrs by qPCR analysis relative to control; format: functional

## CCOC(=O)c1c(O)cc(O)cc1O
[1]
  Activity: Dose-dependent effect
HepG2 [2]
  Activity: Non-toxic
HepG2 [3]
  Activity: 47.6%
[4]
  fold change (FC): 2.1
[5]
  fold change (FC): 1.5
HepG2 [6]
  Activity: Non-toxic
[7]
  Activity: Active
[8]
  fold change (FC): 1.9
[9]
  Activity: Dose-dependent effect
[10]
  Activity: inactive
[11]
  Activity: Dose-dependent effect
[12]
  EC50: 3.04 µM
[13]
  EC50: 80.8 µM
[14]
  Activity: Active
HepG2 [15]
  Activity: Active
[16]
  Activity: Active
[17]
  Activity: Dose-dependent effect
HepG2 [18]
  Activity: Active
[19]
  Activity: Dose-dependent effect
[20]
  Activity: Dose-dependent effect
[21]
  Activity: inactive
[22]
  fold change (FC): 2.9
